Measured values as given in US8846951B2 (AbbVie Inc., priority 2009, dated 2014).
Where two headings read alike, the source gives them in different places.

Key:
5HT2C receptors = biological target: T1, 5HT2C receptors (Homo sapiens, UniProt P28335); assay: Human 5-HT2C functional high throughput screening assay in CHO-K1 cells (calcium flux); format: cell-based; design: expressed in transfected cells; host or cells: CHO-K1 cells; conditions: for EC50: CHO-K1 cells, calcium flux; for Emax: CHO-K1
T1 sequence (P28335 33-458): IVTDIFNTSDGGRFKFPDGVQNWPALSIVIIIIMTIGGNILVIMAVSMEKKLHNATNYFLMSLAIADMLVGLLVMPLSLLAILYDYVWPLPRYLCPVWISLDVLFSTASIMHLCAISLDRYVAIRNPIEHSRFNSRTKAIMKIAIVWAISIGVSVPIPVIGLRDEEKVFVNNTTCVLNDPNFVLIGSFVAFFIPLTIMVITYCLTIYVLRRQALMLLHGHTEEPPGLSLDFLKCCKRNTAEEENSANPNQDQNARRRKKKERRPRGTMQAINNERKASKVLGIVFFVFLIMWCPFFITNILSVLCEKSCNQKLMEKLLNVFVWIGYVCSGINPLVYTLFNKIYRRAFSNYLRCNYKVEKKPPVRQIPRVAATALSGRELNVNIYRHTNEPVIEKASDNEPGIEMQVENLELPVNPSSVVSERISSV
Procedure, shortened: (§1)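 Calcium flux in CHO-K1 cells overexpressing each receptor, using Ca4 dye with probenecid and FLIPR detection. Top concentration was 10 μM, diluted 1:10 across 6 points, and efficacy was scaled to serotonin.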

5HT2B receptors = biological target: T2, 5HT2B receptors (Homo sapiens, UniProt P41595); assay: Human 5-HT2B functional high throughput screening assay in CHO-K1 cells (calcium flux); format: cell-based; conditions: for EC50: CHO-K1 cells, calcium flux
T2 construct: expressed in transfected cells; host or cells: CHO-K1 cells
T2 sequence (P41595 whole entry): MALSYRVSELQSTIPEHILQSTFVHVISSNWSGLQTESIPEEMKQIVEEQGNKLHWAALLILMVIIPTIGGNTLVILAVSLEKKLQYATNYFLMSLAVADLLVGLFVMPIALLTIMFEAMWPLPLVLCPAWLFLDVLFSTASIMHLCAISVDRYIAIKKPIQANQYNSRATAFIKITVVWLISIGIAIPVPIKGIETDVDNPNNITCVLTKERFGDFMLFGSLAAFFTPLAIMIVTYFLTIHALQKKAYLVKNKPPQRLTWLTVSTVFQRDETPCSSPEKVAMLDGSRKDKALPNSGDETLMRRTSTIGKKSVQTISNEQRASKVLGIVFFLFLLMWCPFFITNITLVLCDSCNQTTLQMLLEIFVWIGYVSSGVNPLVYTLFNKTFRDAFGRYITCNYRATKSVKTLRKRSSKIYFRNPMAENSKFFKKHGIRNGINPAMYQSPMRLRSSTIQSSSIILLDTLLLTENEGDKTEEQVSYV
Procedure, shortened: as §1

[1] = 5-HT2C agonist activity, read-out: EC50
[2] = 5-HT2C, maximum functional response as percentage relative to the effect of serotonin
[3] = 5-HT2B agonist activity, read-out: EC50
[4] = 5-HT2B, maximum functional response as percentage relative to the effect of serotonin
[5] = 5-HT2C, maximum functional response as percentage relative to the effect of serotonin, read-out: Emax

| SMILES | EC50 (5HT2C receptors; [1]) [nM] | Emax (5HT2C receptors; [2]) [%] | EC50 (5HT2B receptors; [3]) [nM] | Emax (5HT2B receptors; [4]) | Emax (5HT2C receptors; [5]) [%] | Emax (5HT2B receptors; CHO-K1) [%] | EC50 (5HT2C receptors; EC50, 5-HT2C agonist activity) [nM] | EC50 (5HT2B receptors; EC50, 5-HT2B agonist activity) [nM] | Emax (5HT2C receptors) [%] | Emax (5HT2B receptors) |
| --- | --- | --- | --- | --- | --- | --- | --- | --- | --- | --- |
| c1cc(-c2ccncc2)c2c(c1)[C@H]1CNC[C@@H]1CCO2 (relative stereo) [Example 369, Trans-7-(pyridin-4-yl)-2,3,3a,4,5,10b-hexahydro-1H-[1]benzoxepino[4,5-c]pyrrole] | 300 | 90 | > 10000 | inactive | – | – | – | – | – | – |
| CN1C[C@@H]2CCOc3c(-c4cccnc4)cccc3[C@H]2C1 (relative stereo) [Example 370, Trans-2-methyl-7-(pyridin-3-yl)-2,3,3a,4,5,10b-hexahydro-1H-[1]benzoxepino[4,5-c]pyrrole] | 400 | 90 | > 10000 | inactive | – | – | – | – | – | – |
| CNC(=O)c1ccc(-c2cccc3c2OCC[C@H]2CNC[C@H]32)cc1 (relative stereo) [Example 371, 4-[Trans-2,3,3a,4,5,10b-hexahydro-1H-[1]benzoxepino[4,5-c]pyrrol-7-yl]-N-methylbenzamide] | 600 | – | > 10000 | inactive | 95 | – | – | – | – | – |
| COc1cccc2c1OCC[C@H]1CNC[C@H]21 (relative stereo) [Example 372, Trans-7-methoxy-2,3,3a,4,5,10b-hexahydro-1H-[1]benzoxepino[4,5-c]pyrrole] | 1000 | 70 | 200 | – | – | 25 | – | – | – | – |
| Cc1ccc2c(c1)OCC[C@H]1CNC[C@H]21 (relative stereo) [Example 373, Trans-8-methyl-2,3,3a,4,5,10b-hexahydro-1H-[1]benzoxepino[4,5-c]pyrrole] | – | 100 | – | – | – | 70 | 6 | 50 | – | – |
| Oc1cccc2c1[C@H]1CNC[C@@H]1CCO2 (relative stereo) [Example 374, Trans-2,3,3a,4,5,10b-hexahydro-1H-[1]benzoxepino[4,5-c]pyrrol-10-ol] | – | 90 | – | – | – | 30 | 80 | 700 | – | – |
| CN1CC[C@@H]2CNC[C@H]2c2cccc(Cl)c21 (relative stereo) [Example 375, Trans-7-chloro-6-methyl-1,2,3,3a,4,5,6,10b-octahydropyrrolo[3,4-d][1]benzazepine] | – | 100 | – | – | – | 95 | 0.3 | 10 | – | – |
| Clc1cccc2c1OCC[C@H]1CNC[C@H]21 (relative stereo) [Example 376, Trans-7-chloro-2,3,3a,4,5,10b-hexahydro-1H-[1]benzoxepino[4,5-c]pyrrole] | – | 90 | – | – | – | 70 | 0.2 | 200 | – | – |
| Brc1cccc2c1[C@H]1CNC[C@@H]1CCO2 (relative stereo) [Example 377, Trans-10-bromo-2,3,3a,4,5,10b-hexahydro-1H-[1]benzoxepino[4,5-c]pyrrole] | – | 100 | – | – | – | 30 | 200 | 30 | – | – |
| CC(C)c1cccc(-c2ccc3c(c2)C(=O)NC[C@@H]2CNC[C@@H]32)c1 (relative stereo) [Example 378, Trans-8-(3-isopropylphenyl)-2,3,3a,4,5,10b-hexahydropyrrolo[3,4-d][2]benzazepin-6(1H)-one] | 0.4 | – | > 10000 | inactive | 105 | – | – | – | – | – |
| CC(C)c1cccc(-c2ccc3c(c2)C(=O)NC[C@@H]2CN(C)C[C@@H]32)c1 (relative stereo) [Example 379, Trans-8-(3-isopropylphenyl)-2-methyl-2,3,3a,4,5,10b-hexahydropyrrolo[3,4-d][2]benzazepin-6(1H)-one] | 5 | – | > 10000 | inactive | 100 | – | – | – | – | – |
| CC(C)COc1ccc2c(c1)C(=O)NC[C@@H]1CN(CCF)C[C@@H]21 (relative stereo) [Example 380, Trans-2-(2-fluoroethyl)-8-isobutoxy-2,3,3a,4,5,10b-hexahydropyrrolo[3,4-d][2]benzazepin-6(1H)-one] | 300 | – | > 10000 | – | – | – | – | – | 75 | inactive |
| CNC(=O)c1cccc(-c2ccc3c(c2)C(=O)NC[C@@H]2CNC[C@@H]32)c1 (relative stereo) [Example 381, N-Methyl-3-[trans-6-oxo-1,2,3,3a,4,5,6,10b-octahydropyrrolo[3,4-d][2]benzazepin-8-yl]benzamide] | 10 | – | > 10000 | inactive | 105 | – | – | – | – | – |
| CNC(=O)c1cccc(-c2ccc3c(c2)C(=O)NC[C@@H]2CN(C)C[C@@H]32)c1 (relative stereo) [Example 382, N-Methyl-3-[Trans-2-methyl-6-oxo-1,2,3,3a,4,5,6,10b-octahydropyrrolo[3,4-d][2]benzazepin-8-yl]benzamide] | 90 | – | > 10000 | inactive | 100 | – | – | – | – | – |
| Brc1cccc2c1OCC[C@H]1CNC[C@H]21 (relative stereo) [Example 383, Trans-7-bromo-2,3,3a,4,5,10b-hexahydro-1H-[1]benzoxepino[4,5-c]pyrrole] | – | 105 | – | – | – | 100 | 0.04 | 6 | – | – |
| O=C1NC[C@@H]2CN(CCF)C[C@H]2c2ccc(-c3ccc(F)cc3)cc21 (relative stereo) [Example 384, Trans-2-(2-fluoroethyl)-8-(4-fluorophenyl)-2,3,3a,4,5,10b-hexahydropyrrolo[3,4-d][2]benzazepin-6(1H)-one] | 40 | – | > 10000 | – | – | – | – | – | 85 | inactive |
| O=C1NC[C@@H]2CNC[C@H]2c2ccc(-c3ccsc3Cl)cc21 (relative stereo) [Example 385, Trans-8-(2-chloro-3-thienyl)-2,3,3a,4,5,10b-hexahydropyrrolo[3,4-d][2]benzazepin-6(1H)-one] | 0.3 | – | > 10000 | inactive | 95 | – | – | – | – | – |
| CN1C[C@H]2CNC(=O)c3cc(-c4ccsc4Cl)ccc3[C@@H]2C1 (relative stereo) [Example 387, Trans-8-(2-chloro-3-thienyl)-2-methyl-2,3,3a,4,5,10b-hexahydropyrrolo[3,4-d][2]benzazepin-6(1H)-one] | 6 | – | > 10000 | inactive | 95 | – | – | – | – | – |
| c1ccc2c(c1)NCC[C@@H]1CNC[C@@H]21 (relative stereo) [Example 389, Trans-1,2,3,3a,4,5,6,10b-octahydropyrrolo[3,4-d][1]benzazepine] | 900 | 95 | 400 | – | – | 70 | – | – | – | – |
| CN1C[C@H]2CNC(=O)c3cc(-c4ccc5c(c4)C(=O)CCO5)ccc3[C@@H]2C1 (relative stereo) [Example 390, Trans-2-methyl-8-(4-oxo-3,4-dihydro-2H-chromen-6-yl)-2,3,3a,4,5,10b-hexahydropyrrolo[3,4-d][2]benzazepin-6(1H)-one] | 8 | – | > 10000 | inactive | 90 | – | – | – | – | – |
| Clc1ccc2c(c1)[C@@H]1CNC[C@H]1CCN2 (relative stereo) [Example 391, Trans-9-chloro-1,2,3,3a,4,5,6,10b-octahydropyrrolo[3,4-d][1]benzazepine] | – | 90 | – | – | – | 70 | 90 | 20 | – | – |
